Twelve molecules from ChEMBL document CHEMBL1201862, “PubChem BioAssay data set” (2004) can be followed below.

Test systems include SK-OV-3; OVCAR-8; SW-620; HT-29; NCI-H23; EKVX; SK-MEL-28; HL-60; LOX IMVI; KM12; HOP-62; HCT-15; NCI-H522; SR; HOP-92; SN12C; NCI-H460; U-251.
Assay in all cases: NCI-60 cell line screen, 48 h

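Growth conditions: 96-well plates. Treatment: test compound, 48 hours, 5 concentrations. Analysis: linear interpolation between bracketing concentrations; unreached endpoints set to highest concentration. The concentration for 50% growth inhibition is given as GI50.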 Active and inactive are the calls of the source. Cut-off read from the data, not from the text of the source: active = GI50 up to about 1.1 µM and inactive = higher. A value given as a limit tells only on which side of the number the result lay.

For `COC(=O)C(=O)C(C(=O)C(=O)Nc1cc([N+](=O)[O-])ccc1C#N)c1nc2ccccc2nc1O` (stereo not given), the GI50 in the assay on SK-OV-3 is > 100 µM (inactive); in the assay with OVCAR-8, > 100 µM (inactive); with SW-620, > 100 µM (inactive); with HT-29, > 100 µM (inactive); with NCI-H23, > 100 µM (inactive); with EKVX, 35.5 µM (inactive). For the same molecule, the GI50 in the assay with SK-MEL-28 is > 100 µM (inactive); in the assay with HL-60, > 100 µM (inactive); with LOX IMVI, > 100 µM (inactive); in the assay on KM12, > 100 µM (inactive); in the assay with HOP-62, > 100 µM (inactive); with HCT-15 it was above 100 µM. Also, the GI50 in the assay with NCI-H522 is > 100 µM (inactive); with SR it was > 100 µM (inactive); in the assay on HOP-92 it was 40.6 µM (inactive); with SN12C, > 100 µM (inactive); with NCI-H460, > 100 µM (inactive).
`CC(CCc1ccc2c(c1)c(N)c1ccc(N)cc1[n+]2[O-])CC(C)(C)C` (stereo not given): the GI50 in the assay with U-251 was 1.38 µM (inactive); with OVCAR-8, 1.72 µM (inactive); in the assay on SW-620, 1.68 µM (inactive); in the assay on HT-29, 1.22 µM (inactive); in the assay with NCI-H23, 1.31 µM (inactive); in the assay with EKVX, 1.67 µM (inactive). The GI50 is 2.06 µM (inactive) in the assay with SK-MEL-28; 1.3 µM (inactive) in the assay with HL-60; 1.52 µM (inactive) in the assay with LOX IMVI; 1.99 µM (inactive) in the assay on KM12; 1.83 µM (inactive) in the assay with HOP-62; 4.26 µM in the assay on HCT-15. Also, the values for the GI50 in the assay with SR, in the assay on SN12C and in the assay on NCI-H460 were 1.62 µM (inactive), 1.79 µM (inactive) and 0.597 µM (active), respectively.
For the molecule `CN(CC1NCCCC1O)C12CC3CC(CC(C3)C1)C2` (stereo not given), the GI50 in the assay with SK-OV-3, in the assay with U-251, in the assay on OVCAR-8, in the assay on SW-620, in the assay on HT-29 and in the assay with NCI-H23 was > 100 µM (inactive) in each case. Further, the GI50 in the assay on EKVX is > 100 µM (inactive); in the assay with HL-60, > 100 µM (inactive); in the assay with LOX IMVI it was > 100 µM (inactive); with KM12 it was > 100 µM (inactive); with HOP-62, > 100 µM (inactive); with HCT-15, above 100 µM. Further, the GI50 in the assay on NCI-H522, with HOP-92, with SN12C and with NCI-H460 was > 100 µM (inactive) throughout.
`CCc1ccccc1NC(=O)CC1NC(=O)CS1` (stereo not given): the GI50 in the assay with SK-OV-3, in the assay on U-251, in the assay with OVCAR-8, in the assay with SW-620, in the assay with NCI-H23 and with EKVX was > 100 µM (inactive) in each case. For the same molecule, the GI50 in the assay with SK-MEL-28, with HL-60, in the assay on LOX IMVI, with KM12, in the assay on HOP-62 and with NCI-H522 was > 100 µM (inactive) throughout. For the same molecule, the GI50 in the assay with HOP-92, in the assay with SN12C and in the assay on NCI-H460 was > 100 µM (inactive) each time.
On to `CCOC(=O)/C(O)=C(/c1n[nH]c(=O)c2ccccc12)[N+](=O)[O-]`, for which the GI50 in the assay on SK-OV-3, in the assay on U-251, in the assay with OVCAR-8, in the assay with SW-620, in the assay on HT-29 and in the assay on NCI-H23 was > 100 µM (inactive) throughout. The GI50 in the assay on EKVX is 70.8 µM (inactive); in the assay with SK-MEL-28 it was > 100 µM (inactive); in the assay with HL-60, > 100 µM (inactive); in the assay with LOX IMVI, > 100 µM (inactive); with KM12, > 100 µM (inactive); with HOP-62 it was > 100 µM (inactive). The GI50 is above 100 µM in the assay with HCT-15; > 100 µM (inactive) in the assay with NCI-H522; > 100 µM (inactive) in the assay with HOP-92; > 100 µM (inactive) in the assay on SN12C; > 100 µM (inactive) with NCI-H460.
Take `OCCNCCOc1ccc(/C(=C(/Cl)c2ccccc2)c2ccccc2)cc1`: the GI50 was 3 µM (inactive) in the assay on SK-OV-3; 8.43 µM (inactive) in the assay with U-251; 13.5 µM (inactive) in the assay on OVCAR-8; 4.44 µM (inactive) in the assay on SW-620; 1.11 µM (active) with HT-29; 14.7 µM (inactive) in the assay with NCI-H23. In addition, the GI50 in the assay with EKVX was 14.7 µM (inactive); in the assay on SK-MEL-28, 1.14 µM (inactive); with HL-60 it was 0.729 µM (active); in the assay on LOX IMVI, 3.49 µM (inactive); with KM12, 0.544 µM (active); in the assay with HOP-62, 16.7 µM (inactive). The GI50 with HCT-15 was 5.58 µM; with NCI-H522, 14 µM (inactive); in the assay with SR it was 3.34 µM (inactive); in the assay on SN12C, 5.3 µM (inactive); with NCI-H460, 3.4 µM (inactive).
As to `C[C@]12CC[C@H](O)CC1CCC[C@@H]2O` (stereo not given in full), the GI50 in the assay on SK-OV-3, with U-251, in the assay on OVCAR-8, with SW-620, with HT-29 and in the assay on NCI-H23 was > 100 µM (inactive) throughout. The GI50 in the assay with EKVX, in the assay with SK-MEL-28, in the assay on HL-60, with LOX IMVI, with KM12 and with HOP-62 was > 100 µM (inactive) each time. Besides, the GI50 is above 100 µM in the assay on HCT-15; > 100 µM (inactive) in the assay with NCI-H522; > 100 µM (inactive) in the assay with HOP-92; > 100 µM (inactive) in the assay with SN12C; > 100 µM (inactive) with NCI-H460.
For the molecule `CCO/C=C1\N=C(c2ccc(Cl)c(Cl)c2)OC1=O`, the GI50 with OVCAR-8 was > 100 µM (inactive); with SW-620, > 100 µM (inactive); in the assay on HT-29, > 100 µM (inactive); in the assay with NCI-H23, > 100 µM (inactive); in the assay with EKVX, 41 µM (inactive); with SK-MEL-28, > 100 µM (inactive). The GI50 in the assay with HL-60 is > 100 µM (inactive); with LOX IMVI, > 100 µM (inactive); with KM12, > 100 µM (inactive); in the assay with HOP-62, 50 µM (inactive); with HCT-15 it was above 100 µM; with NCI-H522, 89.5 µM (inactive). Also, the GI50 in the assay on HOP-92, with SN12C and with NCI-H460 was > 100 µM (inactive) throughout.
Consider `O=c1c2ccccc2c2nc3ccccc3nc2n1C1CCCCC1`, for which the GI50 was > 100 µM (inactive) in the assay on SK-OV-3; > 100 µM (inactive) in the assay on U-251; 86.3 µM (inactive) in the assay with OVCAR-8; > 100 µM (inactive) in the assay with SW-620; > 100 µM (inactive) with HT-29; > 100 µM (inactive) with NCI-H23. Moreover, the GI50 with EKVX is > 100 µM (inactive); in the assay with SK-MEL-28, > 100 µM (inactive); in the assay with KM12 it was > 100 µM (inactive); with HCT-15, above 100 µM; in the assay with NCI-H522, > 100 µM (inactive); in the assay on SR, > 100 µM (inactive). Also, in the assay on SN12C, the GI50 was > 100 µM (inactive).
Turning to `COC(=O)C1=C(C(=O)OC)C2(c3ccccc3)OC1(c1ccccc1)c1cc3ccccc3cc12`, the GI50 in the assay on SK-OV-3 was 11.2 µM (inactive); with U-251, 6.43 µM (inactive); in the assay on OVCAR-8, 1.56 µM (inactive); with SW-620 it was 1.76 µM (inactive); in the assay with HT-29, 1.77 µM (inactive); in the assay with NCI-H23 it was 1.92 µM (inactive). Moreover, the GI50 is 1.8 µM (inactive) in the assay on EKVX; 1.87 µM (inactive) with SK-MEL-28; 0.45 µM (active) in the assay with HL-60; 1.32 µM (inactive) in the assay on LOX IMVI; 1.97 µM (inactive) in the assay with KM12; 13.3 µM (inactive) with HOP-62. Moreover, the GI50 is 1.82 µM with HCT-15; 1.23 µM (inactive) in the assay on NCI-H522; 1.09 µM (active) in the assay with HOP-92; 1.9 µM (inactive) in the assay with SN12C; 3.56 µM (inactive) in the assay with NCI-H460.
Turning to `CC(=O)O[C@H]1C(=O)[C@@]2(C)C([C@H](OC(=O)c3ccccc3)[C@]3(O)C[C@H](OC(=O)[C@H](O)[C@H](NC(=O)c4ccccc4)c4ccc(Cl)cc4)C(C)=C1C3(C)C)C1(OC(C)=O)CO[C@@H]1C[C@@H]2O` (stereo not given in full), the GI50 was 0.00163 µM (active) in the assay on SK-OV-3; 0.00182 µM (active) in the assay on U-251; 0.00115 µM (active) with OVCAR-8; 0.000497 µM (active) with SW-620; 0.000106 µM (active) in the assay with HT-29; 0.00104 µM (active) in the assay with NCI-H23. Moreover, the GI50 in the assay with EKVX is 0.769 µM (active); in the assay on SK-MEL-28 it was 0.00157 µM (active); with HL-60, < 0.0001 µM (active); in the assay with LOX IMVI it was < 0.0001 µM (active); with KM12, 0.000282 µM (active); in the assay on HOP-62, 0.00839 µM (active). The GI50 with HCT-15 was 0.516 µM; in the assay on NCI-H522, 0.000356 µM (active); in the assay with SR, 0.000119 µM (active); in the assay on SN12C, 0.000841 µM (active); in the assay with NCI-H460 it was 0.000557 µM (active).
Regarding `c1ccc2c(c1)[nH]c1c[nH]c3c4cccnc4nc-3c12`, the GI50 with OVCAR-8 is 17.1 µM (inactive); in the assay with SW-620, 18.1 µM (inactive); with HT-29, 19.3 µM (inactive); in the assay with NCI-H23, 25.5 µM (inactive); in the assay with EKVX, 19.9 µM (inactive); in the assay with SK-MEL-28, 21.2 µM (inactive). For the same molecule, the GI50 was 17.5 µM (inactive) with HL-60; 19.5 µM (inactive) with LOX IMVI; 29.9 µM (inactive) in the assay with HOP-62; 15.3 µM in the assay with HCT-15; 17.7 µM (inactive) in the assay on SR; 28.2 µM (inactive) in the assay with HOP-92. Further, the GI50 in the assay on SN12C was 18.6 µM (inactive); in the assay with NCI-H460, 21.5 µM (inactive).
